From ChEMBL document CHEMBL1138463, “Structure-based design, synthesis, and characterization of inhibitors of human and Plasmodium falciparum dihydroorotate dehydrogenases” (J Med Chem, 2009)

Experiments:
[1] = biological target: Dihydroorotate dehydrogenase (quinone), mitochondrial (Homo sapiens, UniProt Q02127)
Description: Inhibition of ubiquinone binding site of human dihydroorotate dehydrogenase

[2] = biological target: T1, Dihydroorotate dehydrogenase (Plasmodium falciparum, UniProt Q54A96)
T1 sequence (Q54A96 whole entry): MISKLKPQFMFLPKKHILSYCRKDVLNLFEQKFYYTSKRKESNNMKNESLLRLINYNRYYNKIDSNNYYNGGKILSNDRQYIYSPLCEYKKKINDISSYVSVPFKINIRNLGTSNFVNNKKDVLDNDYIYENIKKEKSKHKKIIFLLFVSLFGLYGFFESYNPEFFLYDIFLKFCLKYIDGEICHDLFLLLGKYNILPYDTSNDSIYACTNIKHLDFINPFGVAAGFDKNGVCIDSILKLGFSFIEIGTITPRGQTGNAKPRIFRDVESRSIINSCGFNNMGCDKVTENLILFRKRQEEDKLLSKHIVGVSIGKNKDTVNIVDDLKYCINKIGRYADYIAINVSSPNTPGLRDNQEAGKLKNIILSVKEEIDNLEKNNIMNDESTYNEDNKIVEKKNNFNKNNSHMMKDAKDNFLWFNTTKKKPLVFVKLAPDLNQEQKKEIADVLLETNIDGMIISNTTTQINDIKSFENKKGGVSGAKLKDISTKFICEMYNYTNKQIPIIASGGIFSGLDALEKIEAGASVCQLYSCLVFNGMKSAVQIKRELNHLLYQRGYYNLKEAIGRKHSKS
Description: Inhibition of ubiquinone binding site of Plasmodium falciparum dihydroorotate dehydrogenase

Chain of Dihydroorotate dehydrogenase (quinone), mitochondrial (Q02127 whole entry): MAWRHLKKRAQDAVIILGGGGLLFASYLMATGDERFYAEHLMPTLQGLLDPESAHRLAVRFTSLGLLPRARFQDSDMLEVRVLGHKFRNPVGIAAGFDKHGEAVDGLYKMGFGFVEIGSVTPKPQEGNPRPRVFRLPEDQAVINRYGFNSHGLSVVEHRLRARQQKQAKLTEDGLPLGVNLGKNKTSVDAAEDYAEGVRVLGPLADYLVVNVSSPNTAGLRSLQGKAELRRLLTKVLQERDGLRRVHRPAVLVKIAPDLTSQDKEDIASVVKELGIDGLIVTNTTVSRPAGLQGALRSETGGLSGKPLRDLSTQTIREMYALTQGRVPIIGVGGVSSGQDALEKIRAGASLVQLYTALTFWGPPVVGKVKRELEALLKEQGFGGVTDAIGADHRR

Compound | IC50 [1] [µM] | Ki [1] [µM] | IC50 [2] [µM] | Ki [2] [µM]
N#C/C(C(=O)Nc1ccc(C(F)(F)F)cc1)=C(/O)C1CC1 | 0.117 | 0.014 | 92.5 | 11
N#C/C(C(=O)Nc1ccc(-c2ccccc2)cc1)=C(/O)C1CC1 | 0.053 | 0.007 |  | 
COc1ccccc1-c1ccc(NC(=O)/C(C#N)=C(/C)O)c(Cl)c1 | 0.2 | 0.025 | 8.6 | 1
C/C(O)=C(\C#N)C(=O)Nc1ccc(-c2ccccc2)cc1Cl | 0.32 | 0.039 | 51.1 | 6
CCOc1cccc(-c2ccc(NC(=O)/C(C#N)=C(/C)O)cc2)c1 | 0.13 | 0.016 | 182 | 21.5
C/C(O)=C(\C#N)C(=O)Nc1ccc(-c2c(Cl)cccc2Cl)cc1Cl | 16.5 | 2 | 10.2 | 1.2
C/C(O)=C(\C#N)C(=O)Nc1ccc(-c2cccc(Cl)c2)cc1Cl | 1.52 | 0.19 | 49.1 | 5.8
C/C(O)=C(\C#N)C(=O)Nc1ccc(-c2cccc(Cl)c2)cc1C(F)(F)F | 86.6 | 10.7 | 57.2 | 6.8
C/C(O)=C(\C#N)C(=O)Nc1ccc(-c2ccccc2)cc1 | 0.09 | 0.011 | 25.7 | 3
C/C(O)=C(\C#N)C(=O)Nc1ccc(-c2ccccc2Cl)cc1C(F)(F)F | 0.17 | 0.021 | 6.2 | 0.73
C/C(O)=C(\C#N)C(=O)Nc1ccc(-c2cccc(Cl)c2Cl)cc1Cl | 0.33 | 0.04 | 9.9 | 1.2

Now from value to compound:

IC50 [1] [µM] | Ki [1] [µM] | IC50 [2] [µM] | Ki [2] [µM] | Compound
0.18 | 0.022 | 4 | 0.48 | C/C(O)=C(\C#N)C(=O)Nc1ccc(-c2ccccc2Cl)cc1Cl
0.13 | 0.016 | 47.4 | 5.6 | C/C(O)=C(\C#N)C(=O)Nc1ccc(-c2ccccc2Cl)cc1
0.022 | 0.0027 | 165 | 20.5 | C/C(O)=C(\C#N)C(=O)Nc1ccc(-c2ccccc2Cl)c(Cl)c1
0.2 | 0.025 | 27.2 | 3.2 | C/C(O)=C(\C#N)C(=O)Nc1ccc(-c2cccc(Cl)c2Cl)cc1
0.19 | 0.023 | 237 | 28 | C/C(O)=C(\C#N)C(=O)Nc1ccc(-c2cccc(Cl)c2)c(Cl)c1
